Reference: ChEMBL document CHEMBL1944578, “Synthesis and anticonvulsant activity of novel 2,6-diketopiperazine derivatives. Part 2: Perhydropyrido[1,2-a]pyrazines” (Eur J Med Chem, 2012)
The source made the active and inactive calls. The calls are words filed in the database; no cut-off is given here.

Columns and labels:
[1] = system: Mus musculus; assay: Anticonvulsant activity in ip dosed Carworth farms No.1 albino mouse assessed as protection against maximum electroshock; assay type: functional
[2] = system: Mus musculus; assay: Anticonvulsant activity in ip dosed Carworth farms No.1 albino mouse assessed as protection against subcutaneous metrazole-induced seizures; assay type: functional
[3] = species on record: Mus musculus; assay: Anticonvulsant activity in maximum electroshock-induced Carworth farms No.1 albino mouse assessed as time of peak effect; assay type: functional
[4] = system: Mus musculus; assay: Anticonvulsant activity in Carworth farms No.1 albino mouse assessed as protection against maximum electroshock at 30 mg/kg, ip measured after 0.5 hrs; assay type: functional, organism-based; set-up: dose 30 mg/kg
[5] = system: Mus musculus; assay: Anticonvulsant activity in Carworth farms No.1 albino mouse assessed as protection against maximum electroshock at 100 mg/kg, ip measured after 0.5 hrs; assay type: functional, organism-based; set-up: dose 100 mg/kg
[6] = system: Mus musculus; assay: Anticonvulsant activity in Carworth farms No.1 albino mouse assessed as protection against maximum electroshock at 300 mg/kg, ip measured after 0.5 hrs; assay type: functional, organism-based; set-up: dose 300 mg/kg
[7] = system: Mus musculus; assay: Anticonvulsant activity in Carworth farms No.1 albino mouse assessed as protection against maximum electroshock at 30 mg/kg, ip measured after 4 hrs; assay type: functional, organism-based; set-up: dose 30 mg/kg
[8] = system: Mus musculus; assay: Anticonvulsant activity in Carworth farms No.1 albino mouse assessed as protection against maximum electroshock at 100 mg/kg, ip measured after 4 hrs; assay type: functional, organism-based; set-up: dose 100 mg/kg
[9] = system: Mus musculus; assay: Anticonvulsant activity in Carworth farms No.1 albino mouse assessed as protection against maximum electroshock at 300 mg/kg, ip measured after 4 hrs; assay type: functional, organism-based; set-up: dose 300 mg/kg
[10] = system: Mus musculus; assay: Anticonvulsant activity in Carworth farms No.1 albino mouse assessed as protection against subcutaneous metrazole-induced seizures at 30 mg/kg, ip measured after 0.5 hrs; assay type: functional, organism-based; set-up: dose 30 mg/kg
[11] = system: Mus musculus; assay: Anticonvulsant activity in Carworth farms No.1 albino mouse assessed as protection against subcutaneous metrazole-induced seizures at 100 mg/kg, ip measured after 0.5 hrs; assay type: functional, organism-based; set-up: dose 100 mg/kg
[12] = system: Mus musculus; assay: Anticonvulsant activity in Carworth farms No.1 albino mouse assessed as protection against subcutaneous metrazole-induced seizures at 300 mg/kg, ip measured after 0.5 hrs; assay type: functional, organism-based; set-up: dose 300 mg/kg
[13] = system: Mus musculus; assay: Anticonvulsant activity in Carworth farms No.1 albino mouse assessed as protection against subcutaneous metrazole-induced seizures at 30 mg/kg, ip measured after 4 hrs; assay type: functional, organism-based; set-up: dose 30 mg/kg
[14] = system: Mus musculus; assay: Anticonvulsant activity in Carworth farms No.1 albino mouse assessed as protection against subcutaneous metrazole-induced seizures at 100 mg/kg, ip measured after 4 hrs; assay type: functional, organism-based; set-up: dose 100 mg/kg
[15] = system: Mus musculus; assay: Anticonvulsant activity in Carworth farms No.1 albino mouse assessed as protection against subcutaneous metrazole-induced seizures at 300 mg/kg, ip measured after 4 hrs; assay type: functional, organism-based; set-up: dose 300 mg/kg
[16] = system: Mus musculus; assay: Neurotoxicity in Carworth farms No.1 albino mouse assessed as neurological impairment at 30 mg/kg, ip measured after 0.5 hrs; assay type: toxicity, organism-based; set-up: dose 30 mg/kg, route intraperitoneal; conditions: in vivo
[17] = system: Mus musculus; assay: Neurotoxicity in Carworth farms No.1 albino mouse assessed as neurological impairment at 100 mg/kg, ip measured after 0.5 hrs; assay type: toxicity, organism-based; set-up: dose 100 mg/kg, route intraperitoneal; conditions: in vivo
[18] = system: Mus musculus; assay: Neurotoxicity in Carworth farms No.1 albino mouse assessed as neurological impairment at 300 mg/kg, ip measured after 0.5 hrs; assay type: toxicity, organism-based; set-up: dose 300 mg/kg, route intraperitoneal; conditions: in vivo
[19] = system: Mus musculus; assay: Neurotoxicity in Carworth farms No.1 albino mouse assessed as neurological impairment at 30 mg/kg, ip measured after 4 hrs; assay type: toxicity, organism-based; set-up: dose 30 mg/kg, route intraperitoneal; conditions: in vivo
[20] = system: Mus musculus; assay: Neurotoxicity in Carworth farms No.1 albino mouse assessed as neurological impairment at 100 mg/kg, ip measured after 4 hrs; assay type: toxicity, organism-based; set-up: dose 100 mg/kg, route intraperitoneal; conditions: in vivo
[21] = system: Mus musculus; assay: Neurotoxicity in Carworth farms No.1 albino mouse assessed as sedation at 300 mg/kg, ip measured after 4 hrs; assay type: toxicity, organism-based; set-up: dose 300 mg/kg, route intraperitoneal; conditions: in vivo
[22] = system: Rattus norvegicus; assay: Anticonvulsant activity in Sprague-Dawley rat assessed as protection against maximum electroshock at 30 mg/kg, po measured after 0.25 hrs; assay type: functional, organism-based; set-up: dose 30 mg/kg
[23] = system: Rattus norvegicus; assay: Anticonvulsant activity in Sprague-Dawley rat assessed as protection against maximum electroshock at 30 mg/kg, po measured after 0.5 hrs; assay type: functional, organism-based; set-up: dose 30 mg/kg
[24] = system: Rattus norvegicus; assay: Anticonvulsant activity in Sprague-Dawley rat assessed as protection against maximum electroshock at 30 mg/kg, po measured after 1 hr; assay type: functional, organism-based; set-up: dose 30 mg/kg
[25] = system: Rattus norvegicus; assay: Anticonvulsant activity in Sprague-Dawley rat assessed as protection against maximum electroshock at 30 mg/kg, po measured after 2 hrs; assay type: functional, organism-based; set-up: dose 30 mg/kg
[26] = system: Rattus norvegicus; assay: Anticonvulsant activity in Sprague-Dawley rat assessed as protection against maximum electroshock at 30 mg/kg, po measured after 4 hrs; assay type: functional, organism-based; set-up: dose 30 mg/kg
[27] = system: Rattus norvegicus; assay: Neurotoxicity in Sprague-Dawley rat assessed as neurological impairment at 30 mg/kg, po measured after 0.25 hrs; assay type: toxicity, organism-based; set-up: dose 30 mg/kg, route oral; conditions: in vivo
[28] = system: Rattus norvegicus; assay: Neurotoxicity in Sprague-Dawley rat assessed as neurological impairment at 30 mg/kg, po measured after 0.5 hrs; assay type: toxicity, organism-based; set-up: dose 30 mg/kg, route oral; conditions: in vivo
[29] = system: Rattus norvegicus; assay: Neurotoxicity in Sprague-Dawley rat assessed as neurological impairment at 30 mg/kg, po measured after 1 hr; assay type: toxicity, organism-based; set-up: dose 30 mg/kg, route oral; conditions: in vivo
[30] = system: Rattus norvegicus; assay: Neurotoxicity in Sprague-Dawley rat assessed as neurological impairment at 30 mg/kg, po measured after 2 hrs; assay type: toxicity, organism-based; set-up: dose 30 mg/kg, route oral; conditions: in vivo
[31] = system: Rattus norvegicus; assay: Neurotoxicity in Sprague-Dawley rat assessed as neurological impairment at 30 mg/kg, po measured after 4 hrs; assay type: toxicity, organism-based; set-up: dose 30 mg/kg, route oral; conditions: in vivo
[32] = system: Mus musculus; assay: Anticonvulsant activity in Carworth farms No.1 albino mouse assessed as protection against 6 Hz electric current-induced seizure at 100 mg/kg, ip measured after 0.25 hrs; assay type: functional, organism-based; set-up: dose 100 mg/kg
[33] = system: Mus musculus; assay: Anticonvulsant activity in Carworth farms No.1 albino mouse assessed as protection against 6 Hz electric current-induced seizure at 100 mg/kg, ip measured after 0.5 hrs; assay type: functional, organism-based; set-up: dose 100 mg/kg
[34] = system: Mus musculus; assay: Anticonvulsant activity in Carworth farms No.1 albino mouse assessed as protection against 6 Hz electric current-induced seizure at 100 mg/kg, ip measured after 1 hrs; assay type: functional, organism-based; set-up: dose 100 mg/kg
[35] = system: Mus musculus; assay: Anticonvulsant activity in Carworth farms No.1 albino mouse assessed as protection against 6 Hz electric current-induced seizure at 100 mg/kg, ip measured after 2 hrs; assay type: functional, organism-based; set-up: dose 100 mg/kg
[36] = system: Mus musculus; assay: Anticonvulsant activity in Carworth farms No.1 albino mouse assessed as protection against 6 Hz electric current-induced seizure at 100 mg/kg, ip measured after 4 hrs; assay type: functional, organism-based; set-up: dose 100 mg/kg
[37] = system: Mus musculus; assay: Neurotoxicity in Carworth farms No.1 albino mouse assessed as neurological impairment at 100 mg/kg, ip measured after 1 hr; assay type: toxicity, organism-based; set-up: dose 100 mg/kg, route intraperitoneal; conditions: in vivo
[38] = system: Mus musculus; assay: Neurotoxicity in Carworth farms No.1 albino mouse assessed as neurological impairment at 100 mg/kg, ip measured after 2 hr; assay type: toxicity, organism-based; set-up: dose 100 mg/kg, route intraperitoneal; conditions: in vivo
[39] = system: Mus musculus; assay: Neurotoxicity in Carworth farms No.1 albino mouse assessed as inability to grasp rotarod at 100 mg/kg, ip measured after 0.25 hr; assay type: toxicity, organism-based; set-up: dose 100 mg/kg, route intraperitoneal; conditions: in vivo
[40] = system: Mus musculus; assay: Neurotoxicity in Carworth farms No.1 albino mouse assessed as inability to grasp rotarod at 100 mg/kg, ip measured after 0.5 hr; assay type: toxicity, organism-based; set-up: dose 100 mg/kg, route intraperitoneal; conditions: in vivo
[41] = system: Mus musculus; assay: Anticonvulsant activity in ip dosed Carworth farms No.1 albino mouse assessed as protection against 6 Hz electric current-induced seizure measured after 0.25 hrs; assay type: functional
[42] = species on record: Mus musculus; assay: Anticonvulsant activity in electric shock-induced Carworth farms No.1 albino mouse assessed as time of peak effect; assay type: functional
[43] = system: Mus musculus; assay: Neurotoxicity in Carworth farms No.1 albino mouse assessed as neurological impairment at 300 mg/kg, ip measured after 4 hrs; assay type: toxicity, organism-based; set-up: dose 300 mg/kg, route intraperitoneal; conditions: in vivo
[44] = system: Mus musculus; assay: Anticonvulsant activity in Carworth farms No.1 albino mouse assessed as protection against maximum electroshock at 100 mg/kg, ip measured after 2 hrs; assay type: functional, organism-based; set-up: dose 100 mg/kg
[45] = system: Mus musculus; assay: Anticonvulsant activity in Carworth farms No.1 albino mouse assessed as protection against subcutaneous metrazole-induced seizures at 100 mg/kg, ip measured after 2 hrs; assay type: functional, organism-based; set-up: dose 100 mg/kg

O=C1NC(=O)C(c2ccccc2)(c2ccccc2)N1 [PHENYTOIN]
ED50 [1]: 5.64 mg/kg
ED50 [2]: > 50 mg/kg
Time [3]: 1 h

O=C1NC(=O)[C@@H]2CCCCN2[C@H]1c1ccccc1
Activity [4]: inactive
Activity [5]: Active
Activity [6]: Active
Activity [7]: inactive
Activity [8]: inactive
Activity [9]: Active
Activity [10]: inactive
Activity [11]: Active
Activity [12]: Active
Activity [13]: inactive
Activity [14]: inactive
Activity [15]: Active
Activity [16]: Non-toxic
Activity [17]: Toxic
Activity [18]: Toxic
Activity [19]: Non-toxic
Activity [20]: Non-toxic
Activity [21]: Toxic
Activity [22]: inactive
Activity [23]: inactive
Activity [24]: inactive
Activity [25]: inactive
Activity [26]: Active
Activity [27]: Non-toxic
Activity [28]: Non-toxic
Activity [29]: Non-toxic
Activity [30]: Non-toxic
Activity [31]: Non-toxic
Activity [32]: Active
Activity [33]: Active
Activity [34]: Active
Activity [35]: Active
Activity [36]: inactive
Activity [37]: Non-toxic
Activity [38]: Non-toxic
Activity [39]: Toxic
Activity [40]: Toxic
ED50 [41]: 27.2 mg/kg
Time [42]: 0.25 h

Cl.O=C1[C@H](c2ccccc2)N2CCCC[C@H]2C(=O)N1Cc1ccccc1
Activity [4]: inactive
Activity [5]: inactive
Activity [6]: inactive
Activity [7]: inactive
Activity [8]: inactive
Activity [9]: Active
Activity [10]: inactive
Activity [11]: inactive
Activity [12]: inactive
Activity [13]: inactive
Activity [14]: inactive
Activity [15]: inactive
Activity [16]: Non-toxic
Activity [17]: Non-toxic
Activity [18]: Non-toxic
Activity [19]: Non-toxic
Activity [20]: Non-toxic
Activity [43]: Non-toxic
Activity [44]: Active
Activity [45]: Active
